Measurements published in article PMC11240139, “Exploring the antitumor potential of novel quinoline derivatives via tubulin polymerization inhibition in breast cancer; design, synthesis and molecular docking” (RSC Advances, 2024).

Columns and labels:
Test in all cases: NCI-60 SRB cytotoxicity screen
Assay type in all cases: cell-based
TK-10 (renal cancer) = tested on: TK-10 (renal cancer)
MDA-MB-435 (melanoma) = tested on: MDA-MB-435 (melanoma)
OVCAR-5 (ovarian cancer) = tested on: OVCAR-5 (ovarian cancer)
OVCAR-3 (ovarian cancer) = tested on: OVCAR-3 (ovarian cancer)
[1] = tested on: MDA-MB-468 (breast cancer)
Procedure, shortened: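 NCI-60 single-dose (10^−5 M) screen in MDA-MB-468 with SRB protein-stain read-out after 48 h exposure; cells TCA-fixed and absorbance read at 540 nm. Reported as GI%, with compounds meeting NCI activity criteria then run at five doses (0.01–100 μM).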

SNB-19 (CNS cancer) = tested on: SNB-19 (CNS cancer)
SK-MEL-5 (melanoma) = tested on: SK-MEL-5 (melanoma)
DU-145 (prostate cancer) = tested on: DU-145 (prostate cancer)
SW-620 (colon cancer) = tested on: SW-620 (colon cancer)
M14 (melanoma) = tested on: M14 (melanoma)
[2] = tested on: NCI-H322M (non-small cell lung cancer)
U251 (CNS cancer) = tested on: U251 (CNS cancer)
COLO 205 (colon cancer) = details: COLO 205, five-dose assay
[3] = Homo sapiens, OVCAR-3, five-dose assay
[4] = Homo sapiens, MDA-MB-468, five-dose assay
[5] = Homo sapiens, SNB-19, five-dose assay
[6] = Homo sapiens, SK-MEL-5, five-dose assay
[7] = Homo sapiens, SW-620, five-dose assay
[8] = Homo sapiens, M14, five-dose assay
[9] = Homo sapiens, U-251, U251, five-dose assay

CCc1cccc2cc(-c3cc(-c4cc(OC)c(OC)c(OC)c4)[nH]c(=O)c3C#N)c(Cl)nc12 [Compound 4c, 4-(2-Chloro-8-ethylquinolin-3-yl)-2-oxo-6-(3,4,5-trimethoxyphenyl)-1,2-dihydropyridine-3-carbonitrile]
GI50 (TK-10 (renal cancer); Homo sapiens, TK-10, five-dose assay): 17.5 µM | CC50 (TK-10 (renal cancer); Homo sapiens, TK-10, five-dose assay, read-out: LC50 (the source's name)): > 100 µM | inhibition at 10 µM (TK-10 (renal cancer); Homo sapiens, TK-10, single dose 10 μM, read-out: growth inhibition (GI%)): > 100% | TGI (TK-10 (renal cancer); TK-10, five-dose assay): 34.50 µM | growth inhibition (GI%) (TK-10 (renal cancer); TK-10, single dose 10 μM): lethal effect | GI50 (MDA-MB-435 (melanoma); Homo sapiens, MDA-MB-435): 32.6 µM | inhibition at 10 µM (MDA-MB-435 (melanoma); Homo sapiens, MDA-MB-435, read-out: growth inhibition (GI%)): 56.5% | LC50 (lethal concentration, 50% net cell kill) (MDA-MB-435 (melanoma); Homo sapiens, MDA-MB-435, five-dose assay): > 100 µM | TGI (MDA-MB-435 (melanoma); MDA-MB-435, five-dose assay): >100 µM | GI50 (OVCAR-5 (ovarian cancer); Homo sapiens, OVCAR-5, five-dose assay): 48.4 µM | CC50 (OVCAR-5 (ovarian cancer); Homo sapiens, OVCAR-5, five-dose assay, read-out: LC50 (the source's name)): > 100 µM | inhibition at 10 µM (OVCAR-5 (ovarian cancer); Homo sapiens, OVCAR-5, single dose 10 μM, read-out: growth inhibition (GI%)): 33.3% | TGI (OVCAR-5 (ovarian cancer); OVCAR-5, five-dose assay): >100 µM | GI50 (OVCAR-3 (ovarian cancer); [3]): 14.2 µM | LC50 (50% lethal concentration) (OVCAR-3 (ovarian cancer); [3]): 62.3 µM | inhibition at 10 µM (OVCAR-3 (ovarian cancer); Homo sapiens, OVCAR-3, single dose 10 μM, read-out: growth inhibition (GI%)): > 100% | TGI (OVCAR-3 (ovarian cancer); OVCAR-3, five-dose assay): 29.80 µM | growth inhibition (GI%) (OVCAR-3 (ovarian cancer); OVCAR-3, single dose 10 μM): lethal effect | GI50 [1, 4]: 12.7 µM | LC50 (concentration killing 50% of cells) [1, 4]: > 100 µM | inhibition at 10 µM ([1]; Homo sapiens, MDA-MB-468, single dose 10 μM, read-out: growth inhibition (GI%)): 51.9% | TGI ([1]; MDA-MB-468, five-dose assay): 61.60 µM | GI50 (SNB-19 (CNS cancer); [5]): 9.25 µM | LC50 (50% lethal concentration) (SNB-19 (CNS cancer); [5]): > 100 µM | inhibition at 10 µM (SNB-19 (CNS cancer); Homo sapiens, SNB-19, single dose 10 μM, read-out: growth inhibition (GI%)): 89.6% | TGI (SNB-19 (CNS cancer); SNB-19, five-dose assay): 50.90 µM | GI50 (SK-MEL-5 (melanoma); [6]): 17.5 µM | LC50 (SK-MEL-5 (melanoma); [6]): > 100 µM | inhibition at 10 µM (SK-MEL-5 (melanoma); Homo sapiens, SK-MEL-5, single dose 10 μM, read-out: growth inhibition (GI%)): 78.6% | TGI (SK-MEL-5 (melanoma); SK-MEL-5, five-dose assay): 90.20 µM | TGI (DU-145 (prostate cancer); DU-145, five-dose assay): 38.00 µM | GI50 (DU-145 (prostate cancer); Homo sapiens, DU-145, five-dose assay): 15.5 µM | CC50 (DU-145 (prostate cancer); Homo sapiens, DU-145, five-dose assay, read-out: LC50 (the source's name)): 93.5 µM | inhibition at 10 µM (DU-145 (prostate cancer); Homo sapiens, DU-145, single dose 10 μM, read-out: growth inhibition (GI%)): 80.5% | GI50 (SW-620 (colon cancer); [7]): 27.5 µM | LC50 (lethal concentration, 50% net cell kill) (SW-620 (colon cancer); [7]): > 100 µM | inhibition at 10 µM (SW-620 (colon cancer); Homo sapiens, SW-620, single dose 10 μM, read-out: growth inhibition (GI%)): 17.4% | TGI (SW-620 (colon cancer); SW-620, five-dose assay): >100 µM | GI50 (M14 (melanoma); [8]): 29.7 µM | LC50 (M14 (melanoma); [8]): > 100 µM | inhibition at 10 µM (M14 (melanoma); Homo sapiens, M14, single dose 10 μM, read-out: growth inhibition (GI%)): 42.8% | TGI (M14 (melanoma); M14, five-dose assay): >100 µM | GI50 ([2]; Homo sapiens, five-dose assay): 10.5 µM | LC50 (concentration causing 50% net cell kill) ([2]; Homo sapiens, five-dose assay): > 100 µM | inhibition at 10 µM ([2]; Homo sapiens, single dose 10 μM, read-out: growth inhibition (GI%)): 53.7% | TGI ([2]; five-dose assay): >100 µM | GI50 (U251 (CNS cancer); [9]): 10.8 µM | LC50 (concentration killing 50% of cells) (U251 (CNS cancer); [9]): 74.9 µM | inhibition at 10 µM (U251 (CNS cancer); Homo sapiens, U-251, U251, single dose 10 μM, read-out: growth inhibition (GI%)): > 100% | TGI (U251 (CNS cancer); U251, five-dose assay): 28.40 µM | growth inhibition (GI%) (U251 (CNS cancer); U251, single dose 10 μM): lethal effect | TGI (COLO 205 (colon cancer)): >100 µM | GI50 (COLO 205 (colon cancer); Homo sapiens): 45.6 µM
